Source: the Kinase Knowledgebase extract (Sharma et al. 2016)

Each compound was assayed against CDK2 (human) (UniProt P24941) (assay: Enzyme Assay).

Row | Ki [nM] | SMILES
1 | < 50 | CCNCc1cncc(-c2ccc3[nH]nc(-c4nc(-c5ccc(Cl)cc5)c(C)[nH]4)c3c2)c1C
2 | < 50 | CCNCc1cncc(-c2ccc3[nH]nc(-c4ncc(C(=O)N5Cc6ccccc6C5)[nH]4)c3c2)c1C
3 | < 50 | CCNCc1cncc(-c2ccc3[nH]nc(-c4nc(C)c[nH]4)c3c2)c1C
4 | < 50 | CCNCc1cncc(-c2ccc3[nH]nc(-c4nc(-c5ccccc5)c(C)[nH]4)c3c2)c1C
5 | < 50 | CCNCc1cncc(-c2ccc3[nH]nc(-c4ncc(C(=O)N[C@H]5CCc6ccccc65)[nH]4)c3c2)c1C
6 | < 50 | CC(C)(C)O.Cc1c(N)cncc1-c1ccc2[nH]nc(-c3nc(-c4ccc(F)cc4)c[nH]3)c2c1
7 | < 50 | CCNCc1cncc(-c2ccc3[nH]nc(-c4ncc(C(=O)N5CCN(c6ccccc6)CC5)[nH]4)c3c2)c1C
8 | < 50 | CCNCc1cncc(-c2ccc3[nH]nc(-c4ncc(C(=O)N5CC=C(c6ccccc6)CC5)[nH]4)c3c2)c1C
9 | < 50 | CNCc1cncc(-c2ccc3[nH]nc(-c4nc(C)c[nH]4)c3c2)c1C
10 | < 50 | CCNCc1cncc(-c2ccc3[nH]nc(-c4ncc[nH]4)c3c2)c1C
11 | < 50 | CCNCc1cncc(-c2ccc3[nH]nc(-c4nc(CC(C)C)c(C)[nH]4)c3c2)c1C
12 | < 50 | CCNCc1cncc(-c2ccc3[nH]nc(-c4nc(-c5ccccc5)c(C(=O)NCc5ccccc5)[nH]4)c3c2)c1C
13 | < 50 | CCNCc1cncc(-c2ccc3[nH]nc(-c4nc5c([nH]4)CCCC5)c3c2)c1C
14 | < 50 | CCNCc1cncc(-c2ccc3[nH]nc(-c4cc(C)n[nH]4)c3c2)c1C
15 | < 50 | CCNCc1cncc(-c2ccc3[nH]nc(-c4ncc[nH]4)c3c2)c1CC
16 | < 50 | CCNCc1cncc(-c2ccc3[nH]nc(-c4nc(C(=O)NC5CCCCC5)c[nH]4)c3c2)c1C
17 | < 50 | CCNCc1cncc(-c2ccc3[nH]nc(-c4nc(-c5cc(Cl)cc(Cl)c5)c(C)[nH]4)c3c2)c1C
18 | < 50 | CCNCc1cncc(-c2ccc3[nH]nc(-c4nc(-c5ccccc5)c[nH]4)c3c2)c1C
19 | < 50 | CCNCc1cncc(-c2ccc3[nH]nc(-c4nc(-c5cccc(C(F)(F)F)c5)c(C)[nH]4)c3c2)c1C

Row | Ki [nM] | SMILES
20 | < 50 | CCNCc1cncc(-c2ccc3[nH]nc(-c4ncc(C(=O)N(CCN(C)C)Cc5ccccc5)[nH]4)c3c2)c1C
21 | < 50 | CCCCCC.CCNCc1cncc(-c2ccc3[nH]nc(-c4nc(C)c(C)[nH]4)c3c2)c1C
22 | < 50 | CCNCc1cncc(-c2ccc3[nH]nc(-c4ncc(C(=O)N[C@@H]5CCc6ccccc65)[nH]4)c3c2)c1C
23 | < 50 | CCNCc1cncc(-c2ccc3[nH]nc(-c4nc(CC)c(CC)[nH]4)c3c2)c1C
24 | < 50 | CCNCc1cncc(-c2ccc3[nH]nc(-c4nc(-c5cccc(OC)c5)c[nH]4)c3c2)c1C
25 | < 50 | CCNCc1cncc(-c2ccc3[nH]nc(-c4nc(-c5ccc(F)cc5)c[nH]4)c3c2)c1C
26 | < 50 | CCNCc1cncc(-c2ccc3[nH]nc(-c4cnc[nH]4)c3c2)c1C
27 | < 50 | CCNCc1cncc(-c2ccc3[nH]nc(-c4ncc(C(=O)N(C)C5CCN(Cc6ccccc6)C5)[nH]4)c3c2)c1C (stereo not drawn)
28 | < 50 | CCNCc1cncc(-c2ccc3[nH]nc(-c4ncc(C(=O)NC(C)C)[nH]4)c3c2)c1C
29 | < 50 | CCNCc1cncc(-c2ccc3[nH]nc(-c4nc(C(=O)NCc5cccnc5)c[nH]4)c3c2)c1C
30 | < 50 | CCNCc1cncc(-c2ccc3[nH]nc(-c4ncc(C(=O)NCc5ccccn5)[nH]4)c3c2)c1C
31 | < 50 | CCNCc1cncc(-c2ccc3[nH]nc(-c4nc(-c5ccc(C(F)(F)F)cc5)c(C)[nH]4)c3c2)c1C
32 | < 50 | CNCc1cncc(-c2ccc3[nH]nc(-c4ncc[nH]4)c3c2)c1C
33 | < 50 | C[S+](C)[O-].Cc1c(N)cncc1-c1ccc2[nH]nc(-c3nc(-c4ccccc4)c[nH]3)c2c1
34 | < 50 | CCCc1nc(-c2n[nH]c3ccc(-c4cncc(CNCC)c4C)cc23)[nH]c1C
35 | < 50 | CCNCc1cncc(-c2ccc3[nH]nc(-c4nc(-c5ccc(OC)cc5)c[nH]4)c3c2)c1C
36 | < 50 | CCNCc1cncc(-c2ccc3[nH]nc(-c4ncc(C(=O)NCC)[nH]4)c3c2)c1C
37 | < 50 | CCNCc1cncc(-c2ccc3[nH]nc(-c4ncc(C(=O)N5CCC(Oc6ccccc6)CC5)[nH]4)c3c2)c1C
38 | < 50 | CCNCc1cncc(-c2ccc3[nH]nc(-c4nc(-c5ccc(OC)c(OC)c5)c[nH]4)c3c2)c1C

The remaining lines, values behind:

Row | SMILES | Ki [nM]
39 | CCNCc1cncc(-c2ccc3[nH]nc(-c4ncc(C(=O)N5CCCC5)[nH]4)c3c2)c1C | < 50
40 | CCNCc1cncc(-c2ccc3[nH]nc(-c4ncc(C(=O)N5CCCC(Cc6ncccn6)CC5)[nH]4)c3c2)c1C (stereo not drawn) | < 50
41 | c1c[nH]c(-c2n[nH]c3ccc(-c4cncc5[nH]ccc45)cc23)n1 | < 50
42 | CCNCc1cncc(-c2ccc3[nH]nc(-c4ncc(C(=O)N5CCN(Cc6ccccc6)CC5)[nH]4)c3c2)c1C | < 50
43 | CCNCc1cncc(-c2ccc3[nH]nc(-c4ncc(C(=O)NCCN(C)C)[nH]4)c3c2)c1C | < 50
44 | CCNCc1cncc(-c2ccc3[nH]nc(-c4ncc(C(=O)N5CCN(c6ccc(F)cc6F)CC5)[nH]4)c3c2)c1C | < 50
45 | CCNCc1cncc(-c2ccc3[nH]nc(-c4ncc(C(=O)N5CCCCCC5)[nH]4)c3c2)c1C | < 50
46 | c1ncc(-c2n[nH]c3ccc(-c4cncc5[nH]ccc45)cc23)[nH]1 | < 50
47 | Cc1c(N)cncc1-c1ccc2[nH]nc(-c3nc4c([nH]3)CCCC4)c2c1 | < 50
48 | CCNCc1cncc(-c2ccc3[nH]nc(-c4ncc(C(=O)NC5CCCC5)[nH]4)c3c2)c1C | < 50
49 | CCNCc1cncc(-c2ccc3[nH]nc(-c4ncc(C(=O)N5CCN(CCOC)CC5)[nH]4)c3c2)c1C | < 50
50 | CCNCc1cncc(-c2ccc3[nH]nc(-c4ncc(C(=O)N5CCOCC5)[nH]4)c3c2)c1C | < 50
51 | CCNCc1cncc(-c2ccc3[nH]nc(-c4ncc(C(=O)N5CCN(Cc6ccccn6)CC5)[nH]4)c3c2)c1C | < 50
52 | Cc1c(CNC(C)C)cncc1-c1ccc2[nH]nc(-c3ncc[nH]3)c2c1 | < 50
53 | CCNCc1cncc(-c2ccc3[nH]nc(-c4ncc(C(=O)NCCOC)[nH]4)c3c2)c1C | < 50
54 | CCNCc1cncc(-c2ccc3[nH]nc(-c4nc5c([nH]4)CCCC5)c3c2)c1CC | < 50
55 | CCNCc1cncc(-c2ccc3[nH]nc(-c4ncc(C(=O)N5CCC(Cc6ncccn6)CC5)[nH]4)c3c2)c1C | < 50
56 | CCNCc1cncc(-c2ccc3[nH]nc(-c4ncc(C(=O)N(CC)CC)[nH]4)c3c2)c1C | < 50
57 | CCNCc1cncc(-c2ccc3[nH]nc(-c4ncc(C(=O)N[C@H]5CCCCNC5=O)[nH]4)c3c2)c1C | < 50
58 | CCNCc1cncc(-c2ccc3[nH]nc(-c4ncc(C(=O)N5C[C@@H](C)O[C@@H](C)C5)[nH]4)c3c2)c1C | < 50
59 | CCNCc1cncc(-c2ccc3[nH]nc(-c4ncc(C(=O)N5CCCCC5)[nH]4)c3c2)c1C | < 50
60 | CCNCc1cncc(-c2ccc3[nH]nc(-c4ncc(C(=O)N5CCN(C)CC5)[nH]4)c3c2)c1C | < 50
61 | CCc1nc(-c2n[nH]c3ccc(-c4cncc(N)c4C)cc23)[nH]c1CC | < 50
62 | Cc1c(N)cncc1-c1ccc2[nH]nc(-c3nc(-c4cccc(F)c4)c[nH]3)c2c1 | < 50
63 | CCCCCC.CCNCc1cncc(-c2ccc3[nH]nc(-c4nc(CC)c(C)[nH]4)c3c2)c1C | < 50
64 | CCNCc1cncc(-c2ccc3[nH]nc(-c4ncc(C(=O)NCCC5=CCCCC5)[nH]4)c3c2)c1C | < 50
65 | CCNCc1cncc(-c2ccc3[nH]nc(-c4ncc(C(=O)N5CCC6CCCCC6C5)[nH]4)c3c2)c1C (stereo not drawn) | < 50
66 | CCNCc1cncc(-c2ccc3[nH]nc(-c4nc(-c5cccc(F)c5)c[nH]4)c3c2)c1C | < 50
67 | C1CCCCC1.COCc1cncc(-c2ccc3[nH]nc(-c4nc5c([nH]4)CCCC5)c3c2)c1C | < 50
68 | CCNCc1cncc(-c2ccc3[nH]nc(-c4ncc(C(=O)NC5C6CC7CC(C6)CC5C7)[nH]4)c3c2)c1C (stereo not drawn) | < 50
